Several values for one entry are separate records, joined by “and”; a condition that tells them apart may be missing. Equal entries are not always repeated. Inconclusive results and toxic doses are left out. Rule for the calls: active = survival T/C of 150% or more; inactive = T/C below 125% in these data.
System: P388 leukemia ip, CD2F1 mice, survival T/C
Assay: NCI In Vivo Anticancer Drug Screen. Data for tumor model P388 Leukemia (intraperitoneal) in CD2F1 (CDF1) mice
Details: endpoint: median survival time, higher = longer survival
Method in brief: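 Mice carrying the transplanted tumor received test compound or vehicle. Survival was recorded in each group, and the value is the treated-group measurement divided by that of the vehicle-treated control group.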

[1] = dose: 50.0 mg/kg/injection, schedule: Q01DX005 (ip), vehicle: Klucel (hydroxypropylcellulose) (HPC)
[2] = dose: 100.0 mg/kg/injection, schedule: Q01DX005 (ip), vehicle: Klucel (hydroxypropylcellulose) (HPC)
[3] = dose: 200.0 mg/kg/injection, schedule: Q01DX005 (ip), vehicle: Klucel (hydroxypropylcellulose) (HPC)
[4] = dose: 60.0 mg/kg/injection, schedule: Q01DX005 (ip), vehicle: Klucel + Tween-80
[5] = dose: 120.0 mg/kg/injection, schedule: Q01DX005 (ip), vehicle: Klucel + Tween-80
[6] = dose: 240.0 mg/kg/injection, schedule: Q01DX005 (ip), vehicle: Klucel + Tween-80
[7] = dose: 60.0 mg/kg/injection, schedule: Q01DX005 (ip), vehicle: saline with Tween-80
[8] = dose: 120.0 mg/kg/injection, schedule: Q01DX005 (ip), vehicle: saline with Tween-80
[9] = dose: 240.0 mg/kg/injection, schedule: Q01DX005 (ip), vehicle: saline with Tween-80
[10] = dose: 50.0 mg/kg/injection, schedule: Q01DX009 (ip), vehicle: saline
[11] = dose: 100.0 mg/kg/injection, schedule: Q04DX003 (ip), vehicle: saline with Tween-80
[12] = dose: 200.0 mg/kg/injection, schedule: Q04DX003 (ip), vehicle: saline with Tween-80
[13] = dose: 400.0 mg/kg/injection, schedule: Q04DX003 (ip), vehicle: saline with Tween-80
[14] = dose: 50.0 mg/kg/injection, schedule: Q01DX005 (ip), vehicle: saline
[15] = dose: 100.0 mg/kg/injection, schedule: Q01DX005 (ip), vehicle: saline
[16] = dose: 50.0 mg/kg/injection, schedule: Q01DX005 (ip), vehicle: saline with Tween-80
[17] = dose: 100.0 mg/kg/injection, schedule: Q01DX005 (ip), vehicle: saline with Tween-80
[18] = dose: 200.0 mg/kg/injection, schedule: Q01DX005 (ip), vehicle: saline with Tween-80
[19] = dose: 12.5 mg/kg/injection, schedule: Q01DX009 (ip), vehicle: saline
[20] = dose: 25.0 mg/kg/injection, schedule: Q01DX009 (ip), vehicle: saline
[21] = dose: 100.0 mg/kg/injection, schedule: Q01DX009 (ip), vehicle: saline with Tween-80
[22] = dose: 200.0 mg/kg/injection, schedule: Q01DX009 (ip), vehicle: saline with Tween-80

Measured: T/C

C=C(C#N)CCl
inactive: dose: 25.0 mg/kg/injection, schedule: Q01DX001 (ip), vehicle: saline with Tween-80 104 % of control | dose: 50.0 mg/kg/injection, schedule: Q01DX001 (ip), vehicle: saline with Tween-80 95 % of control

CC(=O)c1cc2c(cc1O)OC(C)(C)C=C2
inactive: dose: 25.0 mg/kg/injection, schedule: Q01DX005 (ip), vehicle: Klucel (hydroxypropylcellulose) (HPC) 101 % of control | [1] 99 % of control | [2] 91 % of control | [3] 92 % of control

Cc1ccc(N(C(=O)c2ccc(Cl)cc2)C(=S)C#N)cc1
inactive: [4] 89 % of control | [5] 95 % of control | [6] 103 % of control

CCNC(=O)NS(=O)(=O)c1ccc(Sc2ccc(Cl)cc2)nc1
inactive: [7] 102 % of control | [8] 105 % of control | [9] 95 % of control

Nc1cc(=O)nc2cn[nH]n12
inactive: [10] 92 % of control | dose: 100.0 mg/kg/injection, schedule: Q01DX009 (ip), vehicle: saline 101 % of control | dose: 200.0 mg/kg/injection, schedule: Q01DX009 (ip), vehicle: saline 90 % of control

Cc1onc(-c2c(F)cccc2Cl)c1C(=O)Oc1ccccc1
inactive: dose: 30.0 mg/kg/injection, schedule: Q01DX005 (ip), vehicle: saline with Tween-80 100 % of control | [7] 100 % of control | [8] 103 % of control | [9] 99 % of control

Cc1cccc(C)c1NC(=O)Nc1cccc(C(F)(F)F)c1
inactive: [7] 100 % of control | [8] 100 % of control | [9] 90 % of control

CC(=O)Nc1ccc(S(=O)(=O)Nc2ccc(O)c3ccccc23)cc1
inactive: dose: 50.0 mg/kg/injection, schedule: Q04DX003 (ip), vehicle: saline with Tween-80 88 % of control | [11] 90 % of control | [12] 100 % of control | [13] 117 % of control

CCOC(=O)c1cnc2c(C(F)(F)F)cccc2c1N=[N+]=[N-]
inactive: [7] 99 % of control | [8] 96 % of control | [9] 95 % of control

COC(=O)/C=C1/Nc2c(N)nc(N)nc2NC1=O
inactive: dose: 100.0 mg/kg/injection, schedule: Q04DX003 (ip), vehicle: saline 108 % of control | dose: 200.0 mg/kg/injection, schedule: Q04DX003 (ip), vehicle: saline 94 % of control | dose: 400.0 mg/kg/injection, schedule: Q04DX003 (ip), vehicle: saline 95 % of control

Nc1ccc(S(=O)(=O)NCCSSCCNS(=O)(=O)c2ccc(N)cc2)cc1
inactive: [7] 97 % of control | [8] 100 % of control | [9] 105 % of control

COc1ccc(/C=N/N2CN(C(C)C(=O)O)C(O)(CCl)N=C2N)cc1OC (centres undefined)
inactive: dose: 60.0 mg/kg/injection, schedule: Q01DX005 (ip), vehicle: saline 108 % of control | dose: 120.0 mg/kg/injection, schedule: Q01DX005 (ip), vehicle: saline 114 % of control

CN1C(c2cccnc2)=NCC12CCCC2
inactive: dose: 7.5 mg/kg/injection, schedule: Q01DX005 (ip), vehicle: saline 98 % of control | dose: 15.0 mg/kg/injection, schedule: Q01DX005 (ip), vehicle: saline 96 % of control | dose: 30.0 mg/kg/injection, schedule: Q01DX005 (ip), vehicle: saline 97 % of control

CC1=CCCN(C)C1c1ccccc1 (centres undefined)
inactive: [14] 99 % of control | [15] 99 % of control

CCCC#CC#N
inactive: dose: 50.0 mg/kg/injection, schedule: Q01DX009 (ip), vehicle: olive oil, sesame oil, peanut oil 116 % of control

O=S(=O)(Nc1ncccn1)c1ccc(N=Cc2c3ccccc3nc3cc(Cl)ccc23)cc1
inactive: [16] 91 % of control | [17] 90 % of control | [18] 89 % of control

CCOC(=O)c1c[nH]c2ccc(N(CCO)CCO)cc12
inactive: [16] 102 % of control | [17] 105 % of control | [18] 108 % of control

Cc1ccc(S(=O)(=O)N=Nc2c(O)[nH]c3c(Cl)cc(Cl)cc23)cc1
inactive: [16] 103 % of control | [17] 100 % of control | [18] 95 % of control

CCCCCC(CN(C)C)C(=O)/C=C/c1ccc(OC)cc1 (centres undefined)
inactive: [14] 101 % of control | [15] 104 % of control | dose: 200.0 mg/kg/injection, schedule: Q01DX005 (ip), vehicle: saline 96 % of control

N=C(N)c1ccc(N=C(N)Nc2ccc(C(=N)N)cc2)cc1
inactive: dose: 6.25 mg/kg/injection, schedule: Q01DX009 (ip), vehicle: saline 95 % of control | [19] 95 % of control | [20] 95 % of control

O=C(O)CNOCc1ccccc1
inactive: dose: 12.5 mg/kg/injection, schedule: Q01DX009 (ip), vehicle: other 95 % of control | dose: 25.0 mg/kg/injection, schedule: Q01DX009 (ip), vehicle: other 102 % of control | dose: 50.0 mg/kg/injection, schedule: Q01DX009 (ip), vehicle: other 102 % of control | dose: 100.0 mg/kg/injection, schedule: Q01DX009 (ip), vehicle: other 93 % of control | dose: 200.0 mg/kg/injection, schedule: Q01DX009 (ip), vehicle: other 89 % of control

CCOc1ccc(Br)cc1/C=N\N=C\c1cc(Br)ccc1OCC
inactive: [21] 90 % of control | [11] 95 % of control | [22] 100 % of control | [12] 95 % of control | dose: 400.0 mg/kg/injection, schedule: Q01DX009 (ip), vehicle: saline with Tween-80 100 % of control | [13] 100 % of control

CN1C(=O)/C(=C2\SC(=O)N(CN3CCOCC3)C2=O)c2cc(Br)ccc21
inactive: [1] 88 % of control | [2] 89 % of control | [3] 97 % of control

CN(C)C(C(N(C)C)=[N+](C)C)=[N+](C)C
inactive: [19] 108 % of control and 109 % of control and 89 % of control | [20] 110 % of control and 111 % of control | [10] 100 % of control and 103 % of control and 88 % of control

CCCCCC/C(CC(SCC)c1ccccc1Cl)=N\NC(N)=S (centres undefined)
inactive: [7] 91 % of control | [8] 96 % of control | [9] 91 % of control

C=CCn1ccn(C)c1=S
inactive: [11] 101 % of control | [12] 98 % of control | [13] 102 % of control

CCOC(=O)C12CCCCC1OC(=N)C2 (centres undefined)
inactive: [4] 101 % of control | [5] 98 % of control | [6] 99 % of control

CN(C)C(=S)S
inactive: dose: 50.0 mg/kg/injection, schedule: Q01DX009 (ip), vehicle: Klucel (hydroxypropylcellulose) (HPC) 102 % of control | dose: 100.0 mg/kg/injection, schedule: Q01DX009 (ip), vehicle: Klucel (hydroxypropylcellulose) (HPC) 100 % of control | dose: 200.0 mg/kg/injection, schedule: Q01DX009 (ip), vehicle: Klucel (hydroxypropylcellulose) (HPC) 105 % of control | dose: 400.0 mg/kg/injection, schedule: Q01DX009 (ip), vehicle: Klucel (hydroxypropylcellulose) (HPC) 114 % of control

C=C(C)c1ccc2c(c1)[C@H](OC(=O)c1ccccc1)C[C@H]1[C@](C)(COC(=O)c3ccccc3)CCC[C@]21C
inactive: [7] 105 % of control | [8] 92 % of control | [9] 90 % of control

O=[N+]([O-])c1ccc(N2CCCC2)c([N+](=O)[O-])c1
inactive: dose: 25.0 mg/kg/injection, schedule: Q01DX009 (ip), vehicle: saline with Tween-80 100 % of control | dose: 50.0 mg/kg/injection, schedule: Q01DX009 (ip), vehicle: saline with Tween-80 104 % of control | [21] 100 % of control | [22] 100 % of control

O=C(O)c1c(-c2ccc(Cl)cc2)c(-c2ccc(Cl)cc2)nn(CCO)c1=O
inactive: dose: 25.0 mg/kg/injection, schedule: Q04DX002 (ip), vehicle: distilled water + Tween-80 101 % of control | dose: 50.0 mg/kg/injection, schedule: Q04DX002 (ip), vehicle: distilled water + Tween-80 100 % of control | dose: 100.0 mg/kg/injection, schedule: Q04DX002 (ip), vehicle: distilled water + Tween-80 102 % of control | dose: 200.0 mg/kg/injection, schedule: Q04DX002 (ip), vehicle: distilled water + Tween-80 95 % of control

c1csc(C2=NCCC2)c1
inactive: [16] 100 % of control | [17] 102 % of control | [18] 102 % of control

C[Si]1(C)CC[Si](C)(C)OS(=O)(=O)CS(=O)(=O)O1
inactive: [1] 100 % of control | [2] 105 % of control

— PubChem BioAssay AID330 (DTP/NCI, 2004)
